What was measured:
[1] = target: Activin receptor type-1 (Homo sapiens) (UniProt Q04771); conditions: Compound concentration 1000.0 nM
[2] = target: Mitogen-activated protein kinase kinase kinase 6 (Homo sapiens) (UniProt O95382); conditions: Compound concentration 1000.0 nM
[3] = target: Calcium/calmodulin-dependent protein kinase type II subunit delta (Homo sapiens) (UniProt Q13557); conditions: Compound concentration 1000.0 nM
[4] = target: Calcium/calmodulin-dependent protein kinase type IV (Homo sapiens) (UniProt Q16566); conditions: Compound concentration 1000.0 nM
[5] = target: Cyclin-dependent kinase 13 (Homo sapiens) (UniProt Q14004); conditions: Compound concentration 1000.0 nM
[6] = target: Citron Rho-interacting kinase (Homo sapiens) (UniProt O14578); conditions: Compound concentration 1000.0 nM
[7] = target: Casein kinase II subunit alpha' (Homo sapiens) (UniProt P19784); conditions: Compound concentration 1000.0 nM
[8] = target: Death-associated protein kinase 3 (Homo sapiens, UniProt O43293); conditions: Compound concentration 1000.0 nM
[9] = target: Serine/threonine-protein kinase DCLK1 (Homo sapiens) (UniProt O15075); conditions: Compound concentration 1000.0 nM
[10] = target: Epithelial discoidin domain-containing receptor 1 (Homo sapiens) (UniProt Q08345); conditions: Compound concentration 1000.0 nM
[11] = target: Dual specificity tyrosine-phosphorylation-regulated kinase 1A (Homo sapiens) (UniProt Q13627); conditions: Compound concentration 1000.0 nM
[12] = test system: Epidermal growth factor receptor (Homo sapiens), P00533 [G719C]; conditions: Compound concentration 1000.0 nM
[13] = target: Ephrin type-A receptor 3 (Homo sapiens) (UniProt P29320); conditions: Compound concentration 1000.0 nM
[14] = target: Ephrin type-B receptor 2 (Homo sapiens) (UniProt P29323); conditions: Compound concentration 1000.0 nM
[15] = test system: Fibroblast growth factor receptor 3 (Homo sapiens), P22607 [G697C]; conditions: Compound concentration 1000.0 nM
[16] = target: Cyclin-G-associated kinase (Homo sapiens) (UniProt O14976); conditions: Compound concentration 1000.0 nM
[17] = target: Hormonally up-regulated neu tumor-associated kinase (Homo sapiens) (UniProt P57058); conditions: Compound concentration 1000.0 nM
[18] = target: Interleukin-1 receptor-associated kinase 4 (Homo sapiens) (UniProt Q9NWZ3); conditions: Compound concentration 1000.0 nM
[19] = target: Mast/stem cell growth factor receptor Kit (Homo sapiens) (UniProt P10721); conditions: Compound concentration 1000.0 nM
[20] = target: Serine/threonine-protein kinase STK11 (Homo sapiens) (UniProt Q15831); conditions: Compound concentration 1000.0 nM
[21] = target: Mitogen-activated protein kinase kinase kinase kinase 5 (Homo sapiens) (UniProt Q9Y4K4); conditions: Compound concentration 1000.0 nM
[22] = target: Maternal embryonic leucine zipper kinase (Homo sapiens) (UniProt Q14680); conditions: Compound concentration 1000.0 nM
[23] = target: Serine/threonine-protein kinase 26 (Homo sapiens) (UniProt Q9P289); conditions: Compound concentration 1000.0 nM
[24] = target: Serine/threonine-protein kinase Nek5 (Homo sapiens) (UniProt Q6P3R8); conditions: Compound concentration 1000.0 nM
[25] = target: Serine/threonine-protein kinase Nek6 (Homo sapiens) (UniProt Q9HC98); conditions: Compound concentration 1000.0 nM
[26] = target: Serine/threonine-protein kinase Nek9 (Homo sapiens) (UniProt Q8TD19); conditions: Compound concentration 1000.0 nM
[27] = target: Cyclin-dependent kinase 14 (Homo sapiens) (UniProt O94921); conditions: Compound concentration 1000.0 nM
[28] = target: Phosphorylase b kinase regulatory subunit alpha, liver isoform (Homo sapiens) (UniProt P46019); conditions: Compound concentration 1000.0 nM
[29] = target: Phosphatidylinositol 4,5-bisphosphate 3-kinase catalytic subunit beta isoform (Homo sapiens) (UniProt P42338); conditions: Compound concentration 1000.0 nM
[30] = target: Phosphatidylinositol 4-phosphate 5-kinase type-1 gamma (Homo sapiens) (UniProt O60331); conditions: Compound concentration 1000.0 nM
[31] = target: Phosphatidylinositol 5-phosphate 4-kinase type-2 beta (Homo sapiens) (UniProt P78356); conditions: Compound concentration 1000.0 nM
[32] = target: Serine/threonine-protein kinase N2 (Homo sapiens) (UniProt Q16513); conditions: Compound concentration 1000.0 nM
[33] = target: Ribosomal protein S6 kinase beta-1 (Homo sapiens) (UniProt P23443); conditions: Compound concentration 1000.0 nM
[34] = target: Activated CDC42 kinase 1 (Homo sapiens) (UniProt Q07912); conditions: Compound concentration 1000.0 nM
[35] = target: Testis-specific serine/threonine-protein kinase 1 (Homo sapiens) (UniProt Q9BXA7); conditions: Compound concentration 1000.0 nM
[36] = target: Serine/threonine-protein kinase 32A (Homo sapiens) (UniProt Q8WU08); conditions: Compound concentration 1000.0 nM
[37] = target: D(1B) dopamine receptor (Homo sapiens) (UniProt P21918); conditions: Compound concentration 10.0 uM
[38] = target: Alpha-2B adrenergic receptor (Homo sapiens) (UniProt P18089); conditions: Compound concentration 10.0 uM
[39] = target: T1, Muscarinic acetylcholine receptor M2 (Homo sapiens) (UniProt P08172); conditions: Compound concentration 10.0 uM
T1 sequence (whole entry): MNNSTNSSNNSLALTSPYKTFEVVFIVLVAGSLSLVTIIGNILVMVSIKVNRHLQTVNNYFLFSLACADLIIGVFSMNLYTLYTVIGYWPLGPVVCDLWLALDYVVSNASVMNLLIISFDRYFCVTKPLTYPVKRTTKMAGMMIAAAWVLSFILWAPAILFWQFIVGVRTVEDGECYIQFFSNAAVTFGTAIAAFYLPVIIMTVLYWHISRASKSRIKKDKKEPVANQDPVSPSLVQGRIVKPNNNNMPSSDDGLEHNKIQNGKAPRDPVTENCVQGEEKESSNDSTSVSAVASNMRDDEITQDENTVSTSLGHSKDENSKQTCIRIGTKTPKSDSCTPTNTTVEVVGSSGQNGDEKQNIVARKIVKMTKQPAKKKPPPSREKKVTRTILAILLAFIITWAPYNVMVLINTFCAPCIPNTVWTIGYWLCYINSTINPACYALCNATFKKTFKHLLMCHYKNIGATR

Serine/threonine-protein kinase Nek5 (Homo sapiens), sequence (Q6P3R8 whole entry): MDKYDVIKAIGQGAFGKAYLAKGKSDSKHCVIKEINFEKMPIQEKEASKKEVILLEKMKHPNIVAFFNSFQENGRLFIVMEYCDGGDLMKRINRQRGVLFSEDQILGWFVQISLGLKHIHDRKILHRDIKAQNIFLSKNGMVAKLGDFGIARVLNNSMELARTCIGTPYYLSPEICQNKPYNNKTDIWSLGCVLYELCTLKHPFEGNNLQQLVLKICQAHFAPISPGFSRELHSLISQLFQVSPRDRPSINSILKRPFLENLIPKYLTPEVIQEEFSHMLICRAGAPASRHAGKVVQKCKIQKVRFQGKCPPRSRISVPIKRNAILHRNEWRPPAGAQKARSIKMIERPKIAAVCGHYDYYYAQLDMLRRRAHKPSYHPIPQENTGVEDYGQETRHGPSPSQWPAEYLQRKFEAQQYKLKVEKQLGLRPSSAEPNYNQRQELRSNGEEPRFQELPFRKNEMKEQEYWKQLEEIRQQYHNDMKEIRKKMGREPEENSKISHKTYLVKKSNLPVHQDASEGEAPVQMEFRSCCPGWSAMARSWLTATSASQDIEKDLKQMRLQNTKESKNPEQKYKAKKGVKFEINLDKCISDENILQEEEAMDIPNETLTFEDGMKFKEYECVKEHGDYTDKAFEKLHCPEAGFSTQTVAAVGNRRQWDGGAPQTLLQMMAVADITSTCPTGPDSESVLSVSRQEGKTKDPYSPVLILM
Calcium/calmodulin-dependent protein kinase type IV (Homo sapiens), sequence (Q16566 whole entry): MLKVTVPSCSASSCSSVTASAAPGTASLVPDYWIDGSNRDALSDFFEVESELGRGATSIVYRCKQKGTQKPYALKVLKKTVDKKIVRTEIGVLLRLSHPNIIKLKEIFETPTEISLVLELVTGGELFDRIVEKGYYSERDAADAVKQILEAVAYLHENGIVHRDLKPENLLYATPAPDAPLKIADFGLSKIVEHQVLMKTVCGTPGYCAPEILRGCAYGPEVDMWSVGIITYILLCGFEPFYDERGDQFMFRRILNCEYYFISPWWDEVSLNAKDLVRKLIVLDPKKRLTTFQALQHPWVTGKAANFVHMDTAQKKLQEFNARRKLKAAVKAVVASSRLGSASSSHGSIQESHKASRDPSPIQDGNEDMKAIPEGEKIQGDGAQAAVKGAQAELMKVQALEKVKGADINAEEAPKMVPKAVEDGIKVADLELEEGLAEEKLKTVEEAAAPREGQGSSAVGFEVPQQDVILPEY
Serine/threonine-protein kinase 26 (Homo sapiens), sequence (Q9P289 2-416 limits assumed): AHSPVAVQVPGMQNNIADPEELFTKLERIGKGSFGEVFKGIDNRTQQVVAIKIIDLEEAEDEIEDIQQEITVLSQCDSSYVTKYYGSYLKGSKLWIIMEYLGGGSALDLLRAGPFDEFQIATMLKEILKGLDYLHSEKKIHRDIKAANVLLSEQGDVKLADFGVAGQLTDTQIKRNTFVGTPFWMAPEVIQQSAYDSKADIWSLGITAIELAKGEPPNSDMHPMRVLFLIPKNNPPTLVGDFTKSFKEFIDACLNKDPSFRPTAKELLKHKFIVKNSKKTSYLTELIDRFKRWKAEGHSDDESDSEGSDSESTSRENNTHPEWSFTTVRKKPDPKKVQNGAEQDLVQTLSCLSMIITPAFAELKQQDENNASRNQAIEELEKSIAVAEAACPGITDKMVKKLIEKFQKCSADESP
Serine/threonine-protein kinase STK11 (Homo sapiens), sequence (Q15831 whole entry): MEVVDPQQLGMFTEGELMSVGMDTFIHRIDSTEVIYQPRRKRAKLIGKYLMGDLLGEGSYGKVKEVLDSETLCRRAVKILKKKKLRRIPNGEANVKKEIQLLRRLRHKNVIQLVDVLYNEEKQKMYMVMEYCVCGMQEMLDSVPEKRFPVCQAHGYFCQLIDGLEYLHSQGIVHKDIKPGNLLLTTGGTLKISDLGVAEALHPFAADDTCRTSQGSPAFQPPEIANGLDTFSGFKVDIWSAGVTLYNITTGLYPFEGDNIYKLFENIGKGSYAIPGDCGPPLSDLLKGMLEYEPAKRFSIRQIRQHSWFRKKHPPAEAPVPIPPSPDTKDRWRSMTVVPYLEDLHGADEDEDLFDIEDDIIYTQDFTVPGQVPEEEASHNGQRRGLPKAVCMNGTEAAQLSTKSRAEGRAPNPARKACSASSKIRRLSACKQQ
Ephrin type-B receptor 2 (Homo sapiens), sequence (P29323 whole entry): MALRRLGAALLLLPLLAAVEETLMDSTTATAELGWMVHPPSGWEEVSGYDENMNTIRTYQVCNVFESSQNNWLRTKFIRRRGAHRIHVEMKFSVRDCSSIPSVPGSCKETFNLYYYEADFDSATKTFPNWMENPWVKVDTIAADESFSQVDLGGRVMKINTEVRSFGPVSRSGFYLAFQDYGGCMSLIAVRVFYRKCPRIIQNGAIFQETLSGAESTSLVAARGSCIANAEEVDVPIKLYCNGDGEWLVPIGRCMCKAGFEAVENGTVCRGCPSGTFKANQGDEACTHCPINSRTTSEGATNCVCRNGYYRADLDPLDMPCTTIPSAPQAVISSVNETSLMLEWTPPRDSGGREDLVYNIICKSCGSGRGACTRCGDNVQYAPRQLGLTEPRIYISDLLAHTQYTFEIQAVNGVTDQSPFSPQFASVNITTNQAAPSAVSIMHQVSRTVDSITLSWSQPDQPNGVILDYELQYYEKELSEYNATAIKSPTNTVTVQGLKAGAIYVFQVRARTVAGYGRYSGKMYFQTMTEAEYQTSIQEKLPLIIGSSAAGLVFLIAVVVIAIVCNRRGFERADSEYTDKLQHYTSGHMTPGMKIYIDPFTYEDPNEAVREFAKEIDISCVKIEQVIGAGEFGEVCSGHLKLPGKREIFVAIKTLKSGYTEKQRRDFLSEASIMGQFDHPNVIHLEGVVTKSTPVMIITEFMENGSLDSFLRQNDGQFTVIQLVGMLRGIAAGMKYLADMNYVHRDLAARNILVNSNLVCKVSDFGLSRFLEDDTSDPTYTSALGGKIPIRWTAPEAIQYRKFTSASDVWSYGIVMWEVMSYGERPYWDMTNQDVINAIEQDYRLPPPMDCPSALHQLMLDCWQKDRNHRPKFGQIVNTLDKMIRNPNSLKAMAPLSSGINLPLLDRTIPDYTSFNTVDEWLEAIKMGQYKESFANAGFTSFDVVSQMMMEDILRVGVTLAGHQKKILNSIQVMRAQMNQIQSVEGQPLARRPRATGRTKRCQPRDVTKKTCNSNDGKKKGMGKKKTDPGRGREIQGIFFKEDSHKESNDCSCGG
Casein kinase II subunit alpha' (Homo sapiens), sequence (P19784 whole entry, looked up): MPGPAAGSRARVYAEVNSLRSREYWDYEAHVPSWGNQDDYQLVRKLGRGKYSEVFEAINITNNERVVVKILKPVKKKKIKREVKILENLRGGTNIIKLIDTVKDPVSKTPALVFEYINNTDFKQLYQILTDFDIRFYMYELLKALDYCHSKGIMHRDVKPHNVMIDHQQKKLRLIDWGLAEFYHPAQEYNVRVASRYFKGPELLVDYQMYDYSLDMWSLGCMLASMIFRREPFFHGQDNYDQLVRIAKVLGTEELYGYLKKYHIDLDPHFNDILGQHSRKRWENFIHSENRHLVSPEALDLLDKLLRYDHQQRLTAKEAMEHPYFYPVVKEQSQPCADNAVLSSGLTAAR
Phosphatidylinositol 4,5-bisphosphate 3-kinase catalytic subunit beta isoform (Homo sapiens), sequence (P42338 whole entry, looked up, canonical isoform): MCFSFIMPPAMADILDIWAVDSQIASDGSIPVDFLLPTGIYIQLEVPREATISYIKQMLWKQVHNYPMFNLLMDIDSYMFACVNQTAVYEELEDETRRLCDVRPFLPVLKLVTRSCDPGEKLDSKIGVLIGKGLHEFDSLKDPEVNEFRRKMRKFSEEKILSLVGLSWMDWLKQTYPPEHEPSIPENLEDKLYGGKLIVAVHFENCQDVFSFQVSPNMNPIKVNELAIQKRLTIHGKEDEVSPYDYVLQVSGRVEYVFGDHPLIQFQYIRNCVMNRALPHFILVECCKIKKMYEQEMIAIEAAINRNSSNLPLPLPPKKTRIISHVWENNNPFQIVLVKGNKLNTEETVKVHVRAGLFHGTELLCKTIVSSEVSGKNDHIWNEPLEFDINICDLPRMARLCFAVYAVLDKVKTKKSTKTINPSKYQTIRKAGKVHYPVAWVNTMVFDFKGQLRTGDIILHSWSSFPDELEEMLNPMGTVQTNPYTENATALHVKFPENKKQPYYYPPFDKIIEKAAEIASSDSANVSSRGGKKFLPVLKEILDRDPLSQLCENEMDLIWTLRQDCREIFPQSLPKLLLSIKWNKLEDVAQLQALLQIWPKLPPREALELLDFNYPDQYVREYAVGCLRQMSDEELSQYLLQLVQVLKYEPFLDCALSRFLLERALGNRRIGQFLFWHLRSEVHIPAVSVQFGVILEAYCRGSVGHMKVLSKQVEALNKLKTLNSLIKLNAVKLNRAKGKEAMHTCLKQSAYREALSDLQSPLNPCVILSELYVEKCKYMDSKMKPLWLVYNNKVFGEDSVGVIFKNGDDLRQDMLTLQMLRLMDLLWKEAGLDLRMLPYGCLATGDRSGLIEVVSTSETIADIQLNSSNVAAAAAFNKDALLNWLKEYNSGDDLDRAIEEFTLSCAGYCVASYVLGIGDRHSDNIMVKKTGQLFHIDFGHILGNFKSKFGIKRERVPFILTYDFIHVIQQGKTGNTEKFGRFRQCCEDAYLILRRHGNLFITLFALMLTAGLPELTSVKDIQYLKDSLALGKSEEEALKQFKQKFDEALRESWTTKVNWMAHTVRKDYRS
Activin receptor type-1 (Homo sapiens), sequence (Q04771 whole entry): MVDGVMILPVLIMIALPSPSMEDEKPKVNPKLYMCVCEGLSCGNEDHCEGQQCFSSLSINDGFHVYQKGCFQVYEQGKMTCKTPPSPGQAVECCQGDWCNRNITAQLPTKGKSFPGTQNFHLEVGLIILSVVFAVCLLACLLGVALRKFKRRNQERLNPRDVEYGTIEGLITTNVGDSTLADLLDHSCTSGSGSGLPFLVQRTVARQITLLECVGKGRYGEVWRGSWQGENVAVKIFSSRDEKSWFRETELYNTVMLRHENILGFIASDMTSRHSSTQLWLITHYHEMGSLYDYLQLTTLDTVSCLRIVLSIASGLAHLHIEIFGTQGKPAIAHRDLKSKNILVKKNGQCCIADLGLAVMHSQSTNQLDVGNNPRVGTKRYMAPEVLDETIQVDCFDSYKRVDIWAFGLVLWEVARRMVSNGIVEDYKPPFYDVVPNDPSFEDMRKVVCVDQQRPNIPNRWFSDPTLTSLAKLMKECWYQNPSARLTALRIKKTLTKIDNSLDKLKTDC

Row | SMILES | residual activity [1] [%] | residual activity [2] [%] | residual activity [3] [%] | residual activity [4] [%] | residual activity [5] [%] | residual activity [6] [%] | residual activity [7] [%] | residual activity [8] [%] | residual activity [9] [%] | residual activity [10] [%] | residual activity [11] [%] | residual activity [12] [%] | residual activity [13] [%] | residual activity [14] [%] | residual activity [15] [%] | residual activity [16] [%] | residual activity [17] [%] | residual activity [18] [%] | residual activity [19] [%] | residual activity [20] [%] | further results
1 | CCCCN(CCCC)C(=O)CN1C[C@H](c2cc(OC)c3c(c2)OCO3)[C@@H](C(=O)O)[C@@H]1CC(C)(C)CCC [ABT-546] | 100 | 81.7 | 100 | 100 | 52.5 | 100 | 98.4 | 100 | 80.2 | 95.5 | 73.1 | 95.4 | 100 | 100 | 80.2 | 100 | 100 | 67.5 | 92.3 | 100 | residual activity [21]: 100%; residual activity [22]: 100%; residual activity [23]: 72.9%; residual activity [24]: 100%; residual activity [25]: 100%; residual activity [26]: 100%; residual activity [27]: 100%; residual activity [28]: 100%; residual activity [29]: 56.9%; residual activity [30]: 65.9%; residual activity [31]: 100%; residual activity [32]: 100%; residual activity [33]: 92.8%; residual activity [34]: 100%; residual activity [35]: 100%; residual activity [36]: 100%; inhibition [37]: 17%; inhibition [38]: 9.73%; inhibition [39]: -1.89%
2 | CCCCN(CCCC)C(=O)CN1C[C@@H](c2cc(OC)c3c(c2)OCO3)[C@H](C(=O)O)[C@H]1CC(C)(C)CCC [A-545] | 100 | 100 | 99.9 | 100 | 100 | 90.5 | 77.1 | 100 | 81.5 | 100 | 96.3 | 100 | 95.3 | 73 | 94 | 95.8 | 96.8 | 94.5 | 94.9 | 82.2 | residual activity [21]: 100%; residual activity [22]: 100%; residual activity [23]: 100%; residual activity [24]: 87.9%; residual activity [25]: 98.1%; residual activity [26]: 84.2%; residual activity [27]: 100%; residual activity [28]: 100%; residual activity [29]: 100%; residual activity [30]: 100%; residual activity [31]: 59.8%; residual activity [32]: 100%; residual activity [33]: 99%; residual activity [34]: 91.6%; residual activity [35]: 100%; residual activity [36]: 100%; inhibition [37]: 30.5%; inhibition [38]: 50%; inhibition [39]: 3.71%

— ChEMBL document CHEMBL4507258 (2021)
